Experimental data: patent publication US9359451B2, “Methods and compositions for treating trauma-hemorrhage using estrogen and derivatives thereof” (THE UAB RESEARCH FOUNDATION, priority 2012, dated 2016)
Entries after “also recorded” stand apart in the source; their conditions may differ.

Legend:
[1] = test system: hind limb motor function; assay: Spinal cord injury: grading of motor disturbance (modified BBB scale); type: in vivo, mouse; conditions: every day for 10 days after SCI; pre or post treatment with 17β-estradiol; ICI 182,780: co-administered with 17β-estradiol
Protocol: Mice were anaesthetized using chloral hydrate (400 mg/kg body weight) (Genovese 2006). A longitudinal incision was made on the midline of the back, exposing the paravertebral muscles. These muscles were dissected away exposing T5-T8 vertebrae. The spinal cord was exposed via a four-level T6-T7 laminectomy and SCI was produced by extradural compression using an aneurysm clip with a closing force of 24 g. Following surgery, 1 ml of saline was administered subcutaneously in order to replace the blood volume lost during surgery. During the surgery and recovery from anesthesia, the mice were placed on a warm heating pad and covered with a warm towel. […] Food and water were provided to the mice ad libitum. During this time period, the animals' bladders were manually voided twice a day until the mice were able to regain normal bladder function. In all injured groups, the spinal cord was compressed for 1 min. Sham-injured animals were only subjected to laminectomy. […] In the experiments regarding the motor score, the animals from all the experimental groups were observed and treated daily for 9 days after SCI. At different time points (see FIG. 30), the mice (n=10 from each group for each of the 3 time points) were sacrificed in order to evaluate the various parameters as described below. […] The motor function of mice subjected to compression trauma was assessed once a day for 10 days after injury. […]

[2] = test system: TNF-α, IL-1β, IL-6 and MCP-1 mRNA; assay: Spinal cord injury: quantitative real time PCR of cytokines and chemokines; type: in vivo, mouse; conditions: 24 h after SCI; ICI 182,780: co-administered with 17β-estradiol
Protocol: Mice were anaesthetized using chloral hydrate (400 mg/kg body weight) (Genovese 2006). A longitudinal incision was made on the midline of the back, exposing the paravertebral muscles. These muscles were dissected away exposing T5-T8 vertebrae. The spinal cord was exposed via a four-level T6-T7 laminectomy and SCI was produced by extradural compression using an aneurysm clip with a closing force of 24 g. Following surgery, 1 ml of saline was administered subcutaneously in order to replace the blood volume lost during surgery. During the surgery and recovery from anesthesia, the mice were placed on a warm heating pad and covered with a warm towel. The mice were singly housed in a temperature-controlled room at 27° C. and survival was measured over a period of 10 days. Food and water were provided to the mice ad libitum. During this time period, the animals' bladders were manually voided twice a day until the mice were able to regain normal bladder function. In all injured groups, the spinal cord was compressed for 1 min. Sham-injured animals were only subjected to laminectomy.
In the experiments regarding the motor score, the animals from all the experimental groups were observed and treated daily for 9 days after SCI. At different time points (see FIG. 30), the mice (n=10 from each group for each of the 3 time points) were sacrificed in order to evaluate the various parameters as described below.
A segment of spinal cord (320±124 mg) encompassing lesion epicentre was homogenized in a solution of Tri-reagent (Sigma®, Germany) according to the manufacturer's instructions. Total cellular RNA was isolated from the aqueous phase then the levels of […], TNF-α, MCP-1, IL-6 gene products were determined by Real Time PCR. The amount of each PCR product of gene target was normalized to Glyceraldehyde-3-phosphate dehydrogenase (GAPDH). The RNA extracted from spinal cord of individual mice was reverse transcripted into first strand cDNA with Random Hexamers and purified Avian Myeloblastosis Virus Reverse Transcriptase (Takara, Japan) in […] of reaction after a DNAse treatment and stored at −80° C. until use. Primers pair for each cytokine was designed using the software Oligo (Molecular Biology Insights, Cascade, Colo., USA). The PCR reactions were performed using the following cycle conditions: a denaturation step for 15 minutes at 95° C. and 40 cycles of 30 seconds denaturation at 94° C., 30 seconds annealing (TNF-á 61° C., IL-6 54° C., IL-1β 61° C., MCP-1 54° C., GADPH 56° C.), 15 sec at 72° C. and 7 minutes of final extension at 72° C. The PCR products were visualized by electrophoresis on agarose gel 2% stained by ethidium bromide. The purified PCR products were cloned into a plasmid vector, transformed into the E. coli TOP 10 (Invitrogen) and purified with Turbo Kit (QBIOgene, CA, USA). The recombinant plasmid was linearized upstream the target sequence using the restriction endonuclease PmeI (Fermentas, Canada). Tenfold dilutions of recombinant plasmid from 10^9 copies down to 10^1 copies were used as standards. The real time PCR assay was developed and evaluated on the Rotor-Gene 3000 system (Corbett Research, Australia). Reaction was carried out in a final volume of 25 μl containing 1× of SYBR PREMIX Ex Taq Takara, 200 nM each forward and reverse primers, 1× of Rox References Dye and 2 μl of cDNA. Cycling parameters were the following: 10 minutes at 95° C. for polymerase activation followed by 40 cycles of 15 seconds at 95° C., 15 seconds annealing (TNF-α 61° C., […], IL-6 54° C., IL-1β 61° C., MCP-1 54° C., GADPH 56° C.) 20 sec at 72° C. The signal was acquired on the FAM channel (multichannel machine) (source, 470 nm; detector, 510 nm; gain set to 5) with the fluorescence reading taken at the end of each 72° C. step. A melt step was added after a cycling run performed with the same parameters of the SYBR Green assay. […]

Compound | hind limb motor disturbance (BBB score) [1] | IL-1β mRNA levels in spinal cord [2] | IL-6 mRNA levels in spinal cord [2] | MCP-1 mRNA levels in spinal cord [2] | TNF-α mRNA levels in spinal cord [2]
C[C@]12CC[C@@H]3c4ccc(O)cc4C[C@@H](CCCCCCCCC[S+]([O-])CCCC(F)(F)C(F)(F)F)[C@H]3[C@@H]1CC[C@@H]2O (stereo partly shown) [ICI 182,780] | significantly blocked the effect of the 17β-estradiol | significantly blocked the effect of the 17β-estradiol | significantly blocked the effect of the 17β-estradiol | significantly blocked the effect of the 17β-estradiol | significantly blocked the effect of the 17β-estradiol
C[C@]12CC[C@@H]3c4ccc(O)cc4CC[C@H]3[C@@H]1CC[C@@H]2O [17β-estradiol] | significant amelioration of hind limb motor disturbances; also recorded: reduces the motor disturbance after SCI | significantly reduced | significantly reduced | significantly reduced | significantly reduced
